Like-named read-outs stand apart in the source and are kept apart here.
What was measured:
ACC1 [1] = details: ACC1 isolated from rat, mouse, monkey and human; cited from earlier work
ACC2 [2] = details: ACC2 isolated from rat, mouse, monkey and human; cited from earlier work
A549 = assay: EC50 in A549; format: cell-based
ACC2 [3] = target: ACC2 (Homo sapiens (Human), UniProt O00763); assay: In vitro ACC inhibition assay (ADP-Glo), ACC2; format: biochemical
Method: (§1) Compounds of the present invention were evaluated in an in vitro ACC inhibition assay as described by Harwood, et al, 2003, the entirety of which is incorporated herein by reference.
(§2) In Vitro Acetyl-CoA Carboxylase (ACC) Inhibition Assay
(§3) An exemplary procedure for the in vitro ACC inhibition assay, which can be used to determine the inhibitory action of compounds of the invention toward either ACC1 or ACC2, follows. The ADP-Glo™ Kinase Assay kit from Promega was used. The ADP-Glo™ Kinase Assay is a luminescent ADP detection assay to measure enzymatic activity by quantifying the amount of ADP produced during an enzyme reaction. The assay is performed in two steps; first, after the enzyme reaction, an equal volume of ADP-Glo™ Reagent is added to terminate the reaction and deplete the remaining ATP. Second, the Kinase Detection Reagent is added to simultaneously convert ADP to ATP and allow the newly synthesized ATP to be measured using a luciferase/luciferin reaction. Luminescence can be correlated to ADP concentrations by using an ATP-to-ADP conversion curve. The detailed procedure is as follows. 50 μL of the compound being tested (600 uM in DMSO) was added to a 384-well dilution plate. The compound was diluted 1:3 in succession in DMSO for each row for 11 wells. 0.5 μL ACC2 working solution was added to 384-well white Optiplate assay plate. 0.5 μL diluted compound solution in each column from step 2 to assay plate, each row containing 2 replicates. […] The plates were incubated at room temperature for 15 minutes. 5 μL substrate working solution was added to each well to initiate reaction. Final ACC2 reaction concentrations consist of: 5 nM ACC2, 20 μM ATP, 20 μM acetyl-CoA, 12 mM NaHCO3, 0.01% Brij35, 2 mM DTT, 5% DMSO, test compound concentrations: 30 μM, 10 μM, 3.33 μM, 1.11 μM, 0.37 μM, 0.123 μM, 0.0411 μM, 0.0137 μM, 0.00457 μM, 0.00152 μM, and 0.00051 μM. Plates were incubated at room temperature for 60 minutes. 10 μL ADP glo reagent was added. Plates were incubated at room temperature for 40 minutes. 20 μL kinase detection reagent was added. Plates were incubated at room temperature for 40 minutes, then read on a Perkin Elmer EnVision 2104 plate reader for luminescence as Relative Light Units (RLU).
(§4) Data for each concentration, as well as the positive and negative controls were averaged, and the standard deviation calculated. Percent inhibition was calculated by the formula: 100×(average negative control-compound)/(average negative control-average positive control). The IC50 for each compound was calculated by fitting the data with a non-linear regress ion equation: Y=Bottom+(Top−Bottom)/(1+10((Log IC50−X* HillSlope)), where X is the log of compound concentration and Y is percent inhibition.

HepG2 = assay: EC50 in HepG2; format: cell-based
MDA-MB-468 = assay: EC50 in MDA-MB-468; format: cell-based
ACC1 [4] = target: ACC1 (Homo sapiens (Human), UniProt Q13085); assay: In vitro ACC inhibition assay (ADP-Glo), ACC1; format: biochemical
Method: as §1, §2, §3, §4

[5] = 5 nM ACC2, 20 μM ATP, 20 μM acetyl-CoA, read-out: IC50 (μM) ACC2
[6] = ND630 versus RJ compounds, isoform not given, read-out: IC50 (μM) ND630/RJ-cmps(%)
[7] = HepG2, read-out: EC50 (μM) HepG2
[8] = ND630 versus RJ compounds, read-out: EC50 (μM) ND630/RJ-cmps(%)
[9] = MDA-MB-468, read-out: EC50 (μM) MDA-MB-468

Sequence of ACC2 (Homo sapiens (Human), UniProt O00763) (O00763 whole entry, species assumed): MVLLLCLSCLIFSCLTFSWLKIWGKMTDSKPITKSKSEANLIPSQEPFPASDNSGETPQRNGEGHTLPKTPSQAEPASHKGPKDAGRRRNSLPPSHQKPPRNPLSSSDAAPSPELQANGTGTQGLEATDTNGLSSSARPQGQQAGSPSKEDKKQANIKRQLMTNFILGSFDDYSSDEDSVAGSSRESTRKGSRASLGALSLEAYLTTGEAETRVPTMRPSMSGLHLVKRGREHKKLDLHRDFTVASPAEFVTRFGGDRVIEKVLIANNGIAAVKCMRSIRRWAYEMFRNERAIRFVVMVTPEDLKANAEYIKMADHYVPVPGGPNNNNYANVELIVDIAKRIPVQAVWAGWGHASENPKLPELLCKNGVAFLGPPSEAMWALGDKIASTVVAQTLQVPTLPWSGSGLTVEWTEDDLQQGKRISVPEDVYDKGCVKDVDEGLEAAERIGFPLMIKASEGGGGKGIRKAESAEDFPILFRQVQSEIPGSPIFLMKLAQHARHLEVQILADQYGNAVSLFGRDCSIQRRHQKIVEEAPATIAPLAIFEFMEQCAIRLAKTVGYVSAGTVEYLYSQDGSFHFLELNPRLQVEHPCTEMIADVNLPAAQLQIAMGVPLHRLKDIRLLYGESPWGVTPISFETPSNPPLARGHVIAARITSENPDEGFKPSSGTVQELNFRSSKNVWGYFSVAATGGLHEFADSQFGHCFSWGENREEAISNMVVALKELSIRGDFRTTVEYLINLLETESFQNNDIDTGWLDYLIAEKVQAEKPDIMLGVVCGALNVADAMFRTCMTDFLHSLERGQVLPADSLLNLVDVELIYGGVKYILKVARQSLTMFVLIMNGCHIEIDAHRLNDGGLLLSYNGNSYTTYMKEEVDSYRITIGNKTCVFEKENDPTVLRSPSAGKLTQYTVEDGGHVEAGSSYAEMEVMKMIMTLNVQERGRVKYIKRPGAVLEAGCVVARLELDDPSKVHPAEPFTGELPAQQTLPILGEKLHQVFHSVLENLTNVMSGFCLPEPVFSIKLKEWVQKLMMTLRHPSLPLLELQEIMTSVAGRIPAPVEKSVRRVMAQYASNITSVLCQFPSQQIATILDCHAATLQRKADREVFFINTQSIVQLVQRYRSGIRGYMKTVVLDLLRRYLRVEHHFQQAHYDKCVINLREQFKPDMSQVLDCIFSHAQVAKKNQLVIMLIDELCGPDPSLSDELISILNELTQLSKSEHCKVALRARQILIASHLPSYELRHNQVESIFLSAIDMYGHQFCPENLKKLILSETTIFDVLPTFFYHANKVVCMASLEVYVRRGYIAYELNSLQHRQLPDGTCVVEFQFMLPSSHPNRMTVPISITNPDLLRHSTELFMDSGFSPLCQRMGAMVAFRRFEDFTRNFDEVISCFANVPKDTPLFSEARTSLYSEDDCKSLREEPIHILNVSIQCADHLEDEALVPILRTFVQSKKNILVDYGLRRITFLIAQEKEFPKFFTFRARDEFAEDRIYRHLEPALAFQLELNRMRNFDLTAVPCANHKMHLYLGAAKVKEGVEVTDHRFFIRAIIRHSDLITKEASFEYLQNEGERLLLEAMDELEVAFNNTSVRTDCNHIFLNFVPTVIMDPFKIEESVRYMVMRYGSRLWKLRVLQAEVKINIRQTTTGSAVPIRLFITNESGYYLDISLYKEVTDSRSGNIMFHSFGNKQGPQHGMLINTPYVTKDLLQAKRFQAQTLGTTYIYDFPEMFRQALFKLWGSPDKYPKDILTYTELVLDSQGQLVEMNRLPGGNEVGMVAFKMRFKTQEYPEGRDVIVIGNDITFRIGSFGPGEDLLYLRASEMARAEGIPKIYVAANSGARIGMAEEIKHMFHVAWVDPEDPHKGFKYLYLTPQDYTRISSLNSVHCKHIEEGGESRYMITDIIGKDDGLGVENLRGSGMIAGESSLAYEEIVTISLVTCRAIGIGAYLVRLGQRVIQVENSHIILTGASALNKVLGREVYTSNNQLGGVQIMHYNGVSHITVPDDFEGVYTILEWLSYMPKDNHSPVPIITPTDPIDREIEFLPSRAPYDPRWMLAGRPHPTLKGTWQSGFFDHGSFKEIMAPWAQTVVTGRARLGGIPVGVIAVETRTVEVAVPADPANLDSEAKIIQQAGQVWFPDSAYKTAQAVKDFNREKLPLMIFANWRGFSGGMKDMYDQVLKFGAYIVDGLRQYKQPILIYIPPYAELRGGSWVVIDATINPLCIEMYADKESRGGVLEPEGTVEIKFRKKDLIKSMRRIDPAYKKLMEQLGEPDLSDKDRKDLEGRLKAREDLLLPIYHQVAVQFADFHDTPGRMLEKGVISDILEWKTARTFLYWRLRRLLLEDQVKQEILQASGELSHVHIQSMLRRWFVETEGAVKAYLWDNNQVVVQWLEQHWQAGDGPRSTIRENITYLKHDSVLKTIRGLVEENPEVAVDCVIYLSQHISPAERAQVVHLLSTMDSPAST

Row | Compound | EC50 (A549; A549, read-out: EC50 (μM) A549) | IC50 (ACC2 [3]; [5]) | IC50 (ACC2 [3]; [6]) | EC50 (HepG2; [7]) | EC50 (HepG2; [8]) | EC50 (MDA-MB-468; [9]) | IC50 (ACC1 [4]) | IC50 (ACC1 [1]) | IC50 (ACC2 [2]) | EC50 (A549; A549, reference, read-out: EC50 A549 (cisplatin)) | EC50 (MDA-MB-468; MDA-MB-468, reference, read-out: EC50 MDA-MB-468 (cisplatin))
1 | O=C(c1c2ccccc2cc2ccccc12)N1CCC(N2CCC[C@@H](C(=O)N3CCOCC3)C2)CC1 [CP-640186] | – | – | – | – | – | – | – | 60 nM | 60 nM | – | –
2 | COc1ccccc1[C@H](Cn1c(=O)n(C2(C(=O)O)CCCC2)c(=O)c2c(C)c(Br)sc21)OC1CCOCC1 [Example 30] | > 1 µM | < 0.01 µM | 0.003 to 0.005 µM | 0.1 to 1 µM | > 1 µM | > 10 µM | – | – | – | – | –
3 | COc1ccccc1[C@H](Cn1c(=O)n(C2(C(=O)O)CC2)c(=O)c2c(C)c(Cl)sc21)OC1CCOCC1 [Example 40] | > 1 µM | 0.01 to 0.1 µM | 0.005 to 0.01 µM | 0.1 to 1 µM | > 1 µM | > 10 µM | – | – | – | – | –
4 | COc1ccccc1[C@H](Cn1c(=O)n(C2(C(=O)NS(C)(=O)=O)CC2)c(=O)c2c(C)c(-c3ncco3)sc21)OC1CCOCC1 [Example 41] | < 0.5 µM | < 0.01 µM | 0.005 to 0.01 µM | > 1 µM | > 1 µM | 1 to 10 µM | – | – | – | – | –
5 | COc1ccccc1C(Cn1c(=O)n(C2(C(N)=O)CCC2)c(=O)c2c(C)c(Br)sc21)OC1CCOCC1 (centres unmarked) [Example 51] | – | 0.01 to 0.1 µM | 0.003 to 0.005 µM | 0.01 to 0.1 µM | > 1 µM | – | 0.01 to 0.05 µM | – | – | – | –
6 | CNC(=O)C1(n2c(=O)c3c(C)c(Br)sc3n(CC(OC3CCOCC3)c3ccccc3OC)c2=O)CCC1 (centres unmarked) [Example 52] | – | 0.01 to 0.1 µM | 0.003 to 0.005 µM | 0.01 to 0.1 µM | > 1 µM | – | 0.01 to 0.05 µM | – | – | – | –
7 | CNC(=O)C1(n2c(=O)c3c(C)c(-c4ncco4)sc3n(CC(OC3CCOCC3)c3ccccc3OC)c2=O)CCC1 (centres unmarked) [Example 53] | – | < 0.01 µM | 0.003 to 0.005 µM | 0.01 to 0.1 µM | > 1 µM | – | 0.001 to 0.01 µM | – | – | – | –
8 | COc1ccccc1[C@H](Cn1c(=O)n(C2(C(N)=O)CC2)c(=O)c2c(C)c(Br)sc21)OC1CCOCC1 [Example 58] | – | 0.01 to 0.1 µM | > 0.01 µM | > 1 µM | – | – | 0.01 to 0.05 µM | – | – | – | –
9 | COc1ccccc1[C@H](Cn1c(=O)n(C2(CC(=O)O)CC2)c(=O)c2c(C)c(-c3ncco3)sc21)OC1CCOCC1 [Example 61] | – | < 0.01 µM | – | 0.1 to 1 µM | > 1 µM | – | 0.01 to 0.05 µM | – | – | – | –
10 | CNC(=O)CC1(n2c(=O)c3c(C)c(Br)sc3n(C[C@H](OC3CCOCC3)c3ccccc3OC)c2=O)CC1 [Example 62] | – | 0.01 to 0.1 µM | – | 0.01 to 0.1 µM | > 1 µM | – | 0.001 to 0.01 µM | – | – | – | –
11 | CNC(=O)CC1(n2c(=O)c3c(C)c(-c4ncco4)sc3n(C[C@H](OC3CCOCC3)c3ccccc3OC)c2=O)CC1 [Example 63] | – | 0.01 to 0.1 µM | – | 0.01 to 0.1 µM | > 1 µM | – | 0.001 to 0.01 µM | – | – | – | –
12 | N.N.[Cl][Pt][Cl] [cisplatin, reference compound] | – | – | – | – | – | – | – | – | – | 1.28 µM | 0.68 µM

Further lines, with some results ahead:

Row | EC50 (A549; A549, read-out: EC50 (μM) A549) | IC50 (ACC2 [3]; [5]) | IC50 (ACC2 [3]; [6]) | EC50 (HepG2; [7]) | EC50 (HepG2; [8]) | EC50 (MDA-MB-468; [9]) | IC50 (ACC1 [4]) | Compound | IC50 (ACC1 [1]) | IC50 (ACC2 [2]) | EC50 (A549; A549, reference, read-out: EC50 A549 (cisplatin)) | EC50 (MDA-MB-468; MDA-MB-468, reference, read-out: EC50 MDA-MB-468 (cisplatin))
13 | 0.5 to 1 µM | < 0.01 µM | 0.003 to 0.005 µM | 0.01 to 0.1 µM | 0.1 to 1 µM | > 10 µM | 0.001 to 0.01 µM | COc1ccccc1[C@H](Cn1c(=O)n(C2(C(=O)O)CC2)c(=O)c2c(C)c(Br)sc21)OC1CCOCC1 [Example 29] | – | – | – | –
14 | < 0.5 µM | < 0.01 µM | 0.003 to 0.005 µM | 0.01 to 0.1 µM | > 1 µM | > 10 µM | 0.001 to 0.01 µM | COc1ccccc1[C@H](Cn1c(=O)n(C2(C(=O)O)CCC2)c(=O)c2c(C)c(Br)sc21)OC1CCOCC1 [Example 31] | – | – | – | –
15 | < 0.5 µM | < 0.01 µM | 0.003 to 0.005 µM | 0.01 to 0.1 µM | > 1 µM | 1 to 10 µM | < 0.001 µM | COc1ccccc1[C@H](Cn1c(=O)n(C2(C(=O)O)CC2)c(=O)c2c(C)c(-c3ncco3)sc21)OC1CCOCC1 [Example 33] | – | – | – | –
16 | 0.5 to 1 µM | < 0.01 µM | 0.003 to 0.005 µM | 0.01 to 0.1 µM | > 1 µM | > 10 µM | 0.001 to 0.01 µM | COc1ccccc1C(Cn1c(=O)n(C2(C(=O)O)CCCC2)c(=O)c2c(C)c(-c3ncco3)sc21)OC1CCOCC1 (centres unmarked) [Example 36] | – | – | – | –
17 | < 0.5 µM | < 0.01 µM | 0.005 to 0.01 µM | 0.01 to 0.1 µM | > 1 µM | > 10 µM | < 0.001 µM | COc1ccccc1C(Cn1c(=O)n(C2(C(=O)O)CCC2)c(=O)c2c(C)c(-c3ncco3)sc21)OC1CCOCC1 (centres unmarked) [Example 37] | – | – | – | –
18 | < 0.5 µM | < 0.01 µM | 0.005 to 0.01 µM | 0.01 to 0.1 µM | > 1 µM | > 10 µM | < 0.001 µM | COc1ccccc1[C@H](Cn1c(=O)n(C(C)(C)C(=O)O)c(=O)c2c(C)c(-c3ncco3)sc21)OC1CCOCC1 [Example 38] | – | – | – | –
19 | < 0.5 µM | – | – | < 0.01 µM | > 1 µM | > 10 µM | – | COc1ccccc1[C@H](Cn1c(=O)n(C(C)(C)C(N)=O)c(=O)c2c(C)c(-c3ncco3)sc21)OC1CCOCC1 [Example 42] | – | – | – | –
20 | – | 0.01 to 0.1 µM | 0.005 to 0.01 µM | 0.01 to 0.1 µM | > 1 µM | – | 0.001 to 0.01 µM | COc1ccccc1C(Cn1c(=O)n(C2(C(N)=O)CC2)c(=O)c2c(C)c(-c3ncco3)sc21)OC1CCOCC1 (centres unmarked) [Example 46] | – | – | – | –
21 | – | 0.01 to 0.1 µM | 0.005 to 0.01 µM | 0.01 to 0.1 µM | > 1 µM | – | 0.001 to 0.01 µM | CNC(=O)C1(n2c(=O)c3c(C)c(-c4ncco4)sc3n(CC(OC3CCOCC3)c3ccccc3OC)c2=O)CC1 (centres unmarked) [Example 47] | – | – | – | –
22 | – | 0.01 to 0.1 µM | 0.005 to 0.01 µM | < 0.01 µM | > 1 µM | – | 0.001 to 0.01 µM | COc1ccccc1C(Cn1c(=O)n(C2(C(N)=O)CCC2)c(=O)c2c(C)c(-c3ncco3)sc21)OC1CCOCC1 (centres unmarked) [Example 54] | – | – | – | –
23 | – | < 0.01 µM | 0.005 to 0.01 µM | < 0.01 µM | > 1 µM | – | < 0.001 µM | COc1ccccc1[C@H](Cn1c(=O)n(C2(C(=O)O)CCCC2)c(=O)c2c(C)c(-n3nccn3)sc21)OC1CCOCC1 [Example 55] | – | – | – | –
24 | – | < 0.01 µM | – | < 0.01 µM | > 1 µM | – | 0.001 to 0.01 µM | COc1ccccc1[C@H](Cn1c(=O)n(C2(CC(N)=O)CC2)c(=O)c2c(C)c(-c3ncco3)sc21)OC1CCOCC1 [Example 64] | – | – | – | –
25 | – | < 0.01 µM | > 0.01 µM | < 0.01 µM | > 1 µM | – | < 0.001 µM | COc1ccccc1[C@H](Cn1c(=O)n(C2CCC2C(=O)O)c(=O)c2c(C)c(-c3ncco3)sc21)OC1CCOCC1 (some centres unmarked) [Example 69] | – | – | – | –

— patent US10995099B2, “Compounds and their uses as ACC inhibitors” (NANJING RUIJIE PHARMATECH CO., LTD., priority 2017, dated 2021)
